According to ChEMBL document CHEMBL1201862, “PubChem BioAssay data set” (2004):
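A five-concentration, 48-hour dose response in 96-well plates underlies each endpoint, interpolated linearly between surrounding concentrations. GI50 is the concentration that inhibits growth by half.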 Calls of active or inactive are those of the source. No stated cut-off is given here; in the data, active = GI50 up to about 1.1 µM and inactive = higher.

How the values were obtained:
Experiment in all cases: NCI tumour cell line growth inhibition, 48 h
[1] = test system: NCI-H23
[2] = test system: U-251
[3] = test system: A549
[4] = test system: OVCAR-3
[5] = test system: BT-549
[6] = test system: TK-10
[7] = test system: HL-60
[8] = test system: HOP-62
[9] = test system: A498
[10] = test system: SN12C
[11] = test system: UACC-62
[12] = test system: HCT-116
[13] = test system: SF-539
[14] = test system: IGROV-1
[15] = test system: SK-MEL-28
[16] = test system: OVCAR-4
[17] = test system: MDA-MB-231
[18] = test system: Hs-578T
[19] = test system: SK-MEL-5
[20] = test system: SK-OV-3
[21] = test system: M14
[22] = test system: SF-268
[23] = test system: NCI-H460
[24] = test system: ACHN
[25] = test system: OVCAR-5
[26] = test system: COLO 205
[27] = test system: MOLT-4
[28] = test system: RPMI-8226
[29] = test system: EKVX
[30] = test system: NCI/ADR-RES
[31] = test system: Malme-3M
[32] = test system: SK-MEL-2
[33] = test system: MCF7
[34] = test system: 786-0
[35] = test system: DU-145
[36] = test system: MDA-N
[37] = test system: SF-295
[38] = test system: PC-3
[39] = test system: KM12
[40] = test system: SNB-19
[41] = test system: SW-620
[42] = test system: UACC-257
[43] = test system: K562
[44] = test system: NCI-H226
[45] = test system: SR
[46] = test system: HCT-15
[47] = test system: HOP-92
[48] = test system: CAKI-1
[49] = test system: SNB-75
[50] = test system: MDA-MB-435
[51] = test system: LOX IMVI
[52] = test system: RXF 393
[53] = test system: NCI-H522
[54] = test system: CCRF-CEM
[55] = test system: UO-31
[56] = test system: T47D
[57] = test system: OVCAR-8
[58] = test system: HT-29

COC(=O)Nc1nc2cc(S(=O)(=O)N3CCOCC3)ccc2[nH]1
GI50 [1]: > 100 µM (inactive) | GI50 [2]: > 100 µM (inactive) | GI50 [3]: > 100 µM (inactive) | GI50 [4]: > 100 µM (inactive) | GI50 [5]: > 100 µM (inactive) | GI50 [6]: 80.2 µM (inactive) | GI50 [7]: 6.21 µM (inactive) | GI50 [8]: 91.8 µM (inactive) | GI50 [9]: > 100 µM (inactive) | GI50 [10]: > 100 µM (inactive) | GI50 [11]: > 100 µM (inactive) | GI50 [12]: > 100 µM (inactive) | GI50 [13]: 12.4 µM (inactive) | GI50 [14]: > 100 µM (inactive) | GI50 [15]: 49.7 µM (inactive) | GI50 [16]: > 100 µM (inactive) | GI50 [17]: > 100 µM (inactive) | GI50 [18]: > 100 µM (inactive) | GI50 [19]: > 100 µM (inactive) | GI50 [20]: > 100 µM (inactive) | GI50 [21]: > 100 µM (inactive) | GI50 [22]: > 100 µM (inactive) | GI50 [23]: > 100 µM (inactive) | GI50 [24]: > 100 µM (inactive) | GI50 [25]: > 100 µM (inactive) | GI50 [26]: > 100 µM (inactive) | GI50 [27]: 94.4 µM (inactive) | GI50 [28]: 30.3 µM (inactive) | GI50 [29]: > 100 µM (inactive) | GI50 [30]: > 100 µM (inactive) | GI50 [31]: > 100 µM (inactive) | GI50 [32]: > 100 µM (inactive) | GI50 [33]: > 100 µM (inactive) | GI50 [34]: > 100 µM (inactive) | GI50 [35]: > 100 µM (inactive) | GI50 [36]: 27.6 µM (inactive) | GI50 [37]: > 100 µM (inactive) | GI50 [38]: > 100 µM (inactive) | GI50 [39]: 65.5 µM (inactive) | GI50 [40]: > 100 µM (inactive) | GI50 [41]: 54.1 µM (inactive) | GI50 [42]: > 100 µM (inactive) | GI50 [43]: 44.7 µM (inactive) | GI50 [44]: > 100 µM (inactive) | GI50 [45]: 51.1 µM (inactive) | GI50 [46]: > 100 µM | GI50 [47]: > 100 µM (inactive) | GI50 [48]: > 100 µM (inactive) | GI50 [49]: 69.8 µM (inactive) | GI50 [50]: 26.4 µM (inactive) | GI50 [51]: > 100 µM (inactive) | GI50 [52]: > 100 µM (inactive) | GI50 [53]: > 100 µM (inactive) | GI50 [54]: 52.8 µM (inactive) | GI50 [55]: > 100 µM (inactive) | GI50 [56]: > 100 µM (inactive) | GI50 [57]: > 100 µM (inactive) | GI50 [58]: > 100 µM (inactive)
